Values joined by “and” are separate entries in the source; they are usually repeats but may differ in a detail not shown here. Equal values may be shown once.
Assays:
Format in all cases: in vivo, human
[1] = system: MS subjects with severe fatigue; assay: Sequential dose escalation study of fatigue in multiple sclerosis (VAFS, FSS, MFIS, Epworth sleep scale, satiety scale, adverse events); conditions: for improvement in the MFIS: on-drug vs off-drug
Experimental: Three groups of subjects participated in a sequential dose escalation protocol. All subjects received a fixed dose of carbidopa, 50 mg po bid. […] Tablets of the study drugs were produced by the research pharmacy at the University of Miami. Carbidopa was prepared in 50 mg, and 1-histidine at 250 mg strength. Drug dispensation was carried out by the research pharmacist according to the dosage designated for each group.
Benefits and adverse events were documented and reported to the Data Safety Monitoring Body (DSMB). After approval from the DSMB, group 2 was started. Group 2 received 500 mg po bid of L-histidine. Once again after approval from the DSMB, following the successful completion of group 2, escalation to group 3, namely 1 gm po bid of L-histidine was completed. All subjects agreed to participate with 2 lumbar punctures each a week apart, for collection of cerebrospinal fluid (CSF) for the PK/PD part of the study. Each group required the participation of 3 MS subjects and 1 normal individual. For whatever reason if a subject could not complete the study, the design permitted substitution so every group will have three MS subjects and a normal subject that completed the trial.
After informed consent, subjects were screened at the first visit to meet inclusion/exclusion criteria and baseline laboratory studies were obtained including complete blood counts, comprehensive metabolic panel, thyroid panel, and inventory of health measures, including a complete general examination as well as EKG. Subjects completed questionnaires that included the following: Visual Analogue Fatigue Scale (VAFS), fatigue severity scale (FSS), modified fatigue impact scale (MFIS), Epworth sleep scale, Satiety scale, and Center for Epidemiologic Studies Depression Scale. Within 30 days of their screening visit, subjects returned for their baseline visit. The questionnaires were completed again, and subjects underwent the baseline lumbar puncture for collection of baseline cerebrospinal fluid (CSF).
The study medication for the appropriate group was dispensed and all subjects took the first dose of the study drug during this visit.
(§1) Medications were dispensed for 7 days. On day 8, subjects arrived at the center and received the final dose of the study drug and timed from that dosing for the PK/PD studies.
(§2) Blood samples were collected at drug administration, and every 30 minutes for 4 hours. At 90 minutes the second and final lumbar puncture was completed, and CSF obtained for measurement of L-histidine and histamine. All subjects completed the same questions to determine the effects of the treatment on fatigue, wakefulness and satiety.
All subjects were recruited from the MS Center at the University of Miami. Subjects who complained of severe and persistent fatigue of duration longer than 6 months were eligible to be screened for the study. During screening inclusion and exclusion criteria were carefully reviewed. To be eligible, a subject needed to have a definite diagnosis of MS by the McDonald International Criteria and severe fatigue with a mean Fatigue Severity Score (FSS) of 5.0 or greater (maximum mean FSS=7.0). Patients with confounding factors such as anemia, untreated hypothyroidism, depression, concomitant medication that caused fatigue were carefully examined and excluded. Use of stimulants and concomitant use of medications for treatment of fatigue such as modafinil was excluded. Use of caffeine was not restricted, but patients were instructed not to change the usage. Pregnant or lactating females were not included in the study. Patients were cautioned not to use over-the-counter medications without approval of the PI during the study, especially medications for sleep or allergies including but not limited to the use of oral steroids or antihistamines with potential to confound the results of the trial.
They were spouses of patients who participated in this trial. […]

[2] = PK/PD: L-histidine levels in plasma and CSF after final dose
Experimental: as §1, §2
On day 7 from the baseline, the end-of-study visit, subjects arrived at the center without taking the last dose, which was administered under supervision and timed for time-zero. Baseline samples of blood for serum and plasma were collected and blood samples were obtained every half-hour for 6 hours.
At 90 minutes post administration a lumbar puncture was performed, and 0.5 ml aliquots of spinal fluid were collected for a total of 5 minutes. Spinal fluid, serum, and plasma were frozen at -80C until analysis for levels of histidine, histamine and metabolomic studies.
L-Histidine and L-Histidine-^13G6 analytical standards (Sigma Aldrich) were prepared in LC-MS grade water with 0.1% formic acid (FA). 25 μL of sample (CSF or blood) or calibration standard was mixed with 75 μL of LC-MS grade water with 0.1% FA and 200 μL of 2.5 μM L-Histidine-^13G6. […]

CSF biochemicals = assay: Metabolomics in the cerebrospinal fluid after histidine loading
Source text: Four CSF samples from normal subjects (2 before histidine loading and 2 after) and 12 CSF samples from MS patients (6 before and 6 after histidine loading) were examined in this study. The MS samples were evenly distributed from 3 responders and 3 non-responder MS subjects. The dataset comprised a total of 494 biochemicals, 434 known and 60 unknown entities. […] A summary of the biochemicals that achieved significance (p≤0.05) as also those approaching significance (0.05<p<0.10), were examined. All assays also examined estimates of false discoveries (q-value) inherent in estimates that use multiple comparisons. A low q-value (<0.1) gave confidence in a result with a low p value as a potentially meaningful result.

[3] = Group 1: 150 mg po bid of L-histidine and carbidopa 50 mg po bid, one individual
[4] = Group 2: 500 mg po bid of L-histidine and carbidopa 50 mg po bid, single subject
[5] = Group 2 responder, 500 mg po bid of L-histidine and carbidopa 50 mg po bid
[6] = short exposure to the study drug
[7] = following histidine loading, lower prior to loading
[8] = responder population after histidine loading, FIG. 8

With `N[C@@H](Cc1c[nH]cn1)C(=O)O` [L-histidine] the adverse events ([1]; Group 1: 150 mg po bid of L-histidine and carbidopa 50 mg po bid) was “No adverse events were reported”, the “response in fatigue scales (VAFS, FSS, MFIS)” value (shortened to “response in fatigue scales”) [1, 3] was “improved fatigue scores in all three fatigue scales” and the “improvement in the MFIS” value [1, 3] was 30%. The “response in fatigue scales” value [1, 4] was “improvement in all 3 fatigue scales”, the “improvement in the MFIS” value [1, 4] was 81% and the “cognition (written narrative)” value [1, 5] was “able to think clearly, have better focus, and improved cognition”. The “libido and sexual activity (written narrative)” value [1, 5] was “Remarkable improvement of libido and sexual activity”, the “overall quality of life (written narrative)” value [1, 5] was “marked improvement in overall quality of life” and the “relief from fatigue (written narratives)” value ([1]; Group 3: L-histidine 1 gm po bid and carbidopa 50 mg po bid) was “The relief from fatigue was complete”. For the same compound, the “response in fatigue scales” value ([1]; Group 3: L-histidine 1 gm po bid and carbidopa 50 mg po bid, MS subjects) was “three of the three MS subjects noticed remarkable improvement”, the “improvements of MFIS better than off-drug scores” value ([1]; Group 3: L-histidine 1 gm po bid and carbidopa 50 mg po bid, three MS subjects, one value each) was 69% and 74% and 82% and the “day on which subjects noticed the change” value ([1]; all subjects who noted improvement, at whatever dose, response sustained until study drug discontinued) was ~2 days. For the same compound, the adverse events ([1]; normal subjects) was “Nor did they experience any adverse events”, the “benefit from the study drug” value ([1]; normal subjects (no MS, no fatigue)) was “did not notice any benefit” and the “subset scores of MSFC (post-hoc examination)” value ([1]; responders, physical, cognitive and psychosocial domains) was “improvement of all three domains, physical, cognitive and psychosocial”. The “change in satiety scale” value [1, 6] was “A change in satiety scale was not recorded”, the change in weight [1, 6] was “A change in weight was also not recorded” and the “Epworth Sleep Scale (ESS) on study drug” value ([1]; single fatigue responder with ESS over 10, dropped from 13) was 6. For the same compound, the reported adverse events ([1]; whole study, all groups) was “few and related to the lumbar punctures or unrelated intercurrent infections”, the “time after which plasma L-histidine levels became undetectable” value ([2]; human, in vivo) was > 4 h and the “time of peak levels of L-histidine in the plasma” value ([2]; plasma, after final dose, FIG. 5A, 500 mg carbidopa arm) was 2 h. For the same compound, the “Histamine levels in the CSF” value (CSF biochemicals; FIG. 7) was “below the level of detection sensitivity”, the “Histidine levels in CSF after loading” value (CSF biochemicals; MS patients and normal subjects, FIG. 7) was “increased after loading similarly in MS patients and normal subjects” and the “Deoxycarnitine in CSF” value (CSF biochemicals; after histidine loading) was “increased”. The “NAA levels in CSF” value (CSF biochemicals; after histidine loading) was “increased”, the “Carnosine and homocarnosine levels in CSF” value (CSF biochemicals; after histidine loading, FIG. 7) was “did not change significantly” and the “levels of carnosine and homocarnosine” value (CSF biochemicals; after the intervention (concluding statement)) was “increases the levels”. The “Acetoacetate in CSF” value (CSF biochemicals; [7]) was “increased following histidine loading”, the “beta hydroxybutyrate in CSF” value (CSF biochemicals; [7]) was “increased following histidine loading” and the “cis-aconitate in CSF” value (CSF biochemicals; post dosing, MS subjects) was “increases were observed”. For the same compound, the “citrate in CSF” value (CSF biochemicals; post dosing, MS subjects) was “increases were observed”, the “Creatine phosphate in CSF” value (CSF biochemicals; [8]) was “increased” and the “N-acetylaspartate (NAA) in CSF” value (CSF biochemicals; [8]) was “increased”.
